Row | melting point [°C] | SMILES
1 | 87 | Cc1nc2cc3ccccc3cc2o1
2 | 68 to 69 | OCc1scc2c1OCCO2
3 | 254 | CCCOc1ccc2c(c1)C(c1ccc(OC)cc1OCC(=O)O)C(C(=O)O)C2c1ccc2c(c1)OCO2 (stereo not given)
4 | 263 | S=C1NC(=S)C(c2ccccc2)(c2ccccc2)N1
5 | 300 | O=S(=O)(O)c1cccnc1
6 | 83 | O=C(NC(CO)C(=O)OCc1ccccc1)OCc1ccccc1 (stereo not given)
7 | 198 | CNc1cc(=O)oc2ccccc12
8 | 307 to 308 | CC1=NN(c2ccccc2)C(=O)C1C(Br)C1(Br)C(=O)N(c2ccccc2)N=C1C (stereo not given)
9 | 178 | COc1cc(C(=O)O)cc(OCc2ccccc2)c1OC
10 | 59 | O=Cc1ccc(Cl)cc1F
11 | 41 | Cc1ccc(C#N)cc1Br
12 | 228 | COc1cc(C)c(C=CC(C)=CC=CC(C)=CC(=O)O)c(C)c1C
13 | 96 to 97 | N#Cc1cc(Cl)nc(Cl)c1
14 | 204 | C/C(=N\NC(N)=O)c1ccc(C)cc1
15 | -17 | Cc1ccc(Br)c(C)c1
16 | 193 | CC12CCC(CCC1=O)C2(C)C (stereo not given)
17 | 260 to 262 | Cc1nc2ccccc2n1CC(=O)O
18 | 94 to 95 | Cc1nc(Cl)c2c3c(sc2n1)CCCC3
19 | 121 to 122 | COc1cccc2cc(C(=O)Cc3c(C)cc(C)cc3C)oc12
20 | 139 to 141 | O=C(O)c1cnn(-c2ccccc2)c1C(F)(F)F
21 | 49 to 50 | CCOC(=O)c1cc(-c2ccco2)on1
22 | 168 | O=C(O)c1ccc(C(F)(F)F)cc1F
23 | 205 | O=C(O)c1cc(O)ccc1F
24 | 191 | Nc1nncs1
25 | 135 | Cc1c(C)c(C)c(C(=O)Cc2ccccc2)c(C)c1C

Row | melting point [°C] | SMILES
26 | 136 | Nc1cc2ccccc2oc1=O
27 | 184 | CCc1ccc(CCOc2ccc(CC3SC(=O)NC3=O)cc2)nc1 (stereo not given)
28 | -91 | CC(CO)CO
29 | 248 | CC(=O)N[C@@H](C)C(=O)N[C@@H](C)C(=O)N[C@@H](C)C(=O)O
30 | 15 | c1ccc(Cn2cccc2)cc1
31 | 318 to 320 | O=C(O)c1ccc(-n2cncn2)cc1
32 | 47.5 to 55.5 | O=C(Oc1c(F)c(F)c(F)c(F)c1F)c1ccncc1
33 | 306 | O=C1c2ccccc2C(=O)c2cc(O)ccc21
34 | -48.3 | C/C=C/CCCCCCCC
35 | 224 | Cc1cc(C(=O)O)cc(C)c1[N+](=O)[O-]
36 | 55 | CC(=O)Oc1cccc2cccnc12
37 | 182 to 190 | CC(=O)C1(O)CCC2(C)C(CCC3C2CCC2(C)C3CCC23OCCO3)C1 (stereo not given)
38 | 97 to 98 | O=Cc1cccn1-c1ccc(C(F)(F)F)cc1
39 | 46.5 | Cc1ccc(C(C)(C)C)c(O)c1
40 | 96 to 100 | O=C(O)C(c1ccccc1)C1CCCC1 (stereo not given)
41 | 138 | Oc1ccc2c(O)cccc2c1
42 | 231 to 233 | CSc1nc2[nH]c(=S)n(Cc3ccccc3)c(=O)c2n1C
43 | 145 | O=C(O)/C=C/c1ccc(I)o1
44 | 19 | CCC(=O)c1cccc(C(F)(F)F)c1
45 | 74 | CC(=O)CCc1ccc2c(c1)N(C(=O)c1ccccc1)C(C)CC2 (stereo not given)
46 | 186 | NC(C(=O)O)C(O)c1ccccc1 (racemic)
47 | 225 to 228 | C1C2CC3CC1CC(SSC14CC5CC(CC(C5)C1)C4)(C2)C3
48 | 216 | CC(=O)OC1C2=C(C(=O)C(O)=C(C(C)C)C2=O)C2(C)CCCC(C)(C)C2C1O (stereo not given)
49 | 175 | CCCCC(/C=C1\C(=O)C2(C)CCC1C2(C)C)(/C=C1\C(=O)C2(C)CCC1C2(C)C)C(=O)OCC (stereo not given)
50 | 117 | COc1ccc(-c2nn(-c3ccccc3)cc2CNc2ccc(F)c(Cl)c2)cc1

Row | melting point [°C] | SMILES
51 | 54 | CCOC(=O)c1ccc(C#N)cc1
52 | 52 to 54 | Cc1noc(C)c1N
53 | 91 to 94 | OC(O)C(F)(F)C(F)(F)C(F)(F)C(F)(F)C(F)(F)C(F)(F)C(F)(F)C(F)(F)F
54 | 175 | COC(=O)c1ccc(C(=O)O)cc1[N+](=O)[O-]
55 | 175 | O=C(/C=C/Nc1ccccc1)c1ccc2c(c1)CCCC2
56 | > 315 | O=C(O)c1cc(-c2ccc(-c3cc(C(=O)O)c4ccccc4n3)cc2)nc2ccccc12
57 | 69 | CC(=O)Oc1ccc2ccccc2c1
58 | 300 | Nc1nc(S)nc2[nH]ncc12
59 | 177 | N#CC1C(=O)CC(=O)CC1c1ccccc1 (stereo not given)
60 | 94 to 98 | COc1ccc2ccccc2c1C#N
61 | 116 | COC(=O)CCC(C)C1CCC2C3CCC4CC(OC(C)=O)CCC4(C)C3CC(OC(C)=O)C12C (stereo not given)
62 | 124 | CCCCCC(=O)OC1(C(C)=O)CCC2C3CCC4=CC(=O)CCC4C3CCC21C (stereo not given)
63 | 105 to 107 | Oc1ccc2cc(Br)ccc2c1Br
64 | 221 to 226 | CC(=O)c1ccc(O)c(C(N)=O)c1
65 | 235 | COc1cc(NS(C)(=O)=O)ccc1Nc1c2ccccc2nc2ccccc12
66 | 214 | CC(C)CCCC(C)C1CCC2C3CC(Cl)C4(O)CC(=O)CCC4(C)C3CCC12C (stereo not given)
67 | 69 | Fc1ccc(Br)cc1Br
68 | 172 | CC(=O)OC(OC(C)=O)c1ccc2c(c1)C(=O)c1c(Cl)c(Cl)c(Cl)c(Cl)c1C2=O
69 | 20 to 28 | Cc1cc(C)c2c(c1C)CC2
70 | 110 | CC(C)(C)C1=NN(c2ccccc2)C(=O)C1
71 | 316 to 318 | Cc1cccc2c1CC(C(=O)O)NC2 (racemic)
72 | -100 | CCC(C)OC(C)CC (stereo not given)
73 | 64 | Cc1ccc(CO)cc1C
74 | 27 | CCCCCC(=O)c1ccccc1
75 | 50 | COC(=O)c1ccccc1C#N

Row | melting point [°C] | SMILES
76 | 168 to 170 | Cc1ccc(Cl)cc1C(=O)O
77 | 276 | Fc1ccc(C=Nn2c(C(F)(F)F)n[nH]c2=S)cc1
78 | 196 | CCOC(=O)C(=NNc1ccccc1[N+](=O)[O-])C(=O)OCC
79 | 93 | Nc1ccnc(Cl)c1
80 | 45 | Clc1cccc2ncccc12
81 | 174 to 175 | Cc1nccc(-c2cccc(S(=O)(=O)Cl)c2)n1
82 | 200 | CC(=O)C(C(=O)OC1CC(C)CCC1C(C)C)C(C)C(C(C)=O)/C(=N\NC(N)=O)OC1CC(C)CCC1C(C)C (stereo not given)
83 | 134 | COC(=O)c1cc(Br)ccc1NC(C)=O
84 | 162 to 163 | ON=CC1=C(/C=C/c2ccccc2)CCC1
85 | 205 | NC(=O)c1sc(Nc2ccccc2)nc1N
86 | 119 to 125 | O=Cc1cc(Cl)cc(C=O)c1O
87 | 126 to 127 | O=C(O)[C@H](Cc1ccccc1)NC(=O)C(F)(F)F
88 | 111 | O=C(Cl)c1ccc2nsnc2c1
89 | 124 | COc1cc(/C=C/c2cc(C)cc(OC)c2O)ccc1O
90 | 70 | CCN1CN(CC)CN(CC)C1
91 | 27 | Nc1ccc(N2CCCCC2)cc1
92 | 71 to 74 | Cc1nc(-c2ccc(CO)cc2)cs1
93 | 189 | C/C(Cc1ccccc1)=N\NC(N)=O
94 | 171 | CC1(C)C2CCC1(C)C(O)C2C(c1ccccc1)c1ccccc1 (stereo not given)
95 | 129 to 131 | CC1(C)CC(C(N)=O)C(C)(C)N1 (stereo not given)
96 | 176 | CN(C)c1ccc(C2Nn3c(nnc3-c3ccc([N+](=O)[O-])cc3)S2)cc1 (stereo not given)
97 | 97 to 98 | CC(=O)c1cc2cc(Cl)ccc2o1
98 | 109 to 114 | CC(=O)c1ccc(-c2cccs2)s1
99 | 215 | Nc1ccc(C(=O)O)cc1F
100 | 54 to 59 | COc1ccc(C(C)(C)c2ccc(OC)cc2)cc1

Row | melting point [°C] | SMILES
101 | 105 | Nc1cc(Br)cc2cc[nH]c12
102 | 137 | Cc1cc(N=O)ccc1N=O
103 | 22.3 | Cc1cc(C)c(O)c(C(C)(C)C)c1
104 | -19 | CCCCCCOc1ccccc1
105 | 31 to 34 | CN(C(=S)Cl)c1ccccc1
106 | 94 to 96 | O=Cc1ccc(SC2CCCCC2)c([N+](=O)[O-])c1
107 | 93 to 96 | O=[N+]([O-])c1ccc(Oc2ccc(Cl)cc2)nc1
108 | 110 to 112 | Cc1ccc(C(=O)c2cc3c(cc2Br)OCCO3)cc1
109 | 97 to 99 | S=C1NCCc2ccccc21
110 | 25 | CCCCC=CCCC=CCCCCCCOC(C)=O
111 | 163 to 168 | O=C(O)c1cnc(Cl)c(Cl)c1
112 | -47 | CCCCCCCCCC(C)C
113 | 10 | CCOC(=O)CCCCCC(=O)O
114 | 9.7 | CCCCCCCCCCCCC(CCCCCCCCCCC)CCCCCCCCCCCC
115 | 238 | NC(=O)/C(=N\Nc1cccnc1)c1nc2ccccc2s1
116 | 255 | CC(/C=N/NC(N)=O)=N\NC(N)=O
117 | 198 to 200 | CC(C)(C)c1cc([N+](=O)[O-])c2cc(C(C)(C)C)cc([N+](=O)[O-])c2c1
118 | 157 | CN(C)C1=C(C=C(c2ccc(F)cc2)c2ccc(F)cc2)C(=O)N(c2ccccc2)C1=O
119 | 85 | Cc1nc(C)c(C)nc1C
120 | 226 to 228 | CCOc1ccc(-c2nnc3n2NC(C=Cc2ccccc2)S3)cc1 (stereo not given)
121 | 154 to 158 | CN1C(=O)Cc2cc(S(=O)(=O)Cl)ccc21

Row | SMILES | melting point [°C]
122 | O=Cc1ccc([N+](=O)[O-])cc1[N+](=O)[O-] | 72
123 | O=C(Br)c1ccccc1 | -24
124 | NCCCP(=O)(O)O | 290 to 294
125 | C=CC(=O)NCO | 74.5
126 | CC(C)NC(=O)N1CC(=O)N(c2cc(Cl)cc(Cl)c2)C1=O | 136
127 | NC(=O)CBr | 89
128 | FC(F)(F)C(F)(F)N(C(F)(F)C(F)(F)F)C(F)(F)C(F)(F)F | -110
129 | c1ccc2c(c1)ccc1c3ccccc3sc21 | 189
130 | O=[N+]([O-])c1ccc(O)c([N+](=O)[O-])c1 | 116
